Paper PMC9516332 (Frontiers in Oncology, 2022)
Read-outs that look alike come from different tables or passages of the source.

How the values were obtained:
[1] = system: AP-1060 (ETV6-NTRK3); assay: Cell viability assay; details: read-out: IC50 in cell proliferation assay
[2] = system: 134 cancer cell lines; assay: Cell viability assay (ATPlite, 72 hours), IC50 on cancer cell line panel

For CCc1cc2c(cc1N1CCC(N3CCOCC3)CC1)C(C)(C)c1[nH]c3cc(C#N)ccc3c1C2=O [alectinib], the IC50 [1] was 1.13 µM, the IC50 ([2]; HEC-6, read-out: IC50 in cell proliferation assay) was > 10 µM and the IC50 ([2]; Homo sapiens, 769-P, read-out: IC50 in cell proliferation assay) was 9.15 µM. For the same compound, the IC50 ([2]; Homo sapiens, 786-0, read-out: IC50 in cell proliferation assay) was > 10 µM, the IC50 ([2]; Homo sapiens, A 172, read-out: IC50 in cell proliferation assay) was > 10 µM and the IC50 ([2]; Homo sapiens, A204, read-out: IC50 in cell proliferation assay) was > 10 µM. For the same compound, the IC50 ([2]; Homo sapiens, A498, read-out: IC50 in cell proliferation assay) was > 10 µM, the IC50 ([2]; Homo sapiens, A549, read-out: IC50 in cell proliferation assay) was > 10 µM and the IC50 ([2]; Homo sapiens, A704, read-out: IC50 in cell proliferation assay) was > 10 µM. The IC50 ([2]; Homo sapiens, A-375, read-out: IC50 in cell proliferation assay) was > 10 µM, the IC50 ([2]; Homo sapiens, A-427, read-out: IC50 in cell proliferation assay) was > 10 µM and the IC50 ([2]; Homo sapiens, ACHN, read-out: IC50 in cell proliferation assay) was 3.52 µM. The IC50 ([2]; Homo sapiens, AN3-CA, read-out: IC50 in cell proliferation assay) was > 10 µM, the IC50 ([2]; Homo sapiens, ASPC1, read-out: IC50 in cell proliferation assay) was > 10 µM and the IC50 ([2]; Homo sapiens, AU565, read-out: IC50 in cell proliferation assay) was > 10 µM. For the same compound, the IC50 ([2]; Homo sapiens, BT-20, read-out: IC50 in cell proliferation assay) was > 10 µM, the IC50 ([2]; Homo sapiens, BT-474, read-out: IC50 in cell proliferation assay) was > 10 µM and the IC50 ([2]; Homo sapiens, BT-549, read-out: IC50 in cell proliferation assay) was 2.71 µM. For the same compound, the IC50 ([2]; Homo sapiens, BXPC-3, read-out: IC50 in cell proliferation assay) was > 10 µM, the IC50 ([2]; Homo sapiens, C-33-A, read-out: IC50 in cell proliferation assay) was 1.99 µM and the IC50 ([2]; Homo sapiens, CAL-27, read-out: IC50 in cell proliferation assay) was 1.18 µM. The IC50 ([2]; Homo sapiens, CCF-STTG1, read-out: IC50 in cell proliferation assay) was 3.02 µM, the IC50 ([2]; Homo sapiens, CCRF-CEM, read-out: IC50 in cell proliferation assay) was > 10 µM and the IC50 ([2]; Homo sapiens, COLO 205, read-out: IC50 in cell proliferation assay) was > 10 µM. For the same compound, the IC50 ([2]; Homo sapiens, COLO-829, read-out: IC50 in cell proliferation assay) was > 10 µM, the IC50 ([2]; Homo sapiens, DLD-1, read-out: IC50 in cell proliferation assay) was > 10 µM and the IC50 ([2]; Homo sapiens, DU-145, read-out: IC50 in cell proliferation assay) was > 10 µM. The IC50 ([2]; Homo sapiens, DU-4475, read-out: IC50 in cell proliferation assay) was > 10 µM, the IC50 ([2]; Homo sapiens, Daoy, read-out: IC50 in cell proliferation assay) was 3.45 µM and the IC50 ([2]; Homo sapiens, DoTc2-4510, read-out: IC50 in cell proliferation assay) was 0.477 µM. The IC50 ([2]; Homo sapiens, EOL1, read-out: IC50 in cell proliferation assay) was 0.193 µM, the IC50 ([2]; Homo sapiens, FaDu, read-out: IC50 in cell proliferation assay) was > 10 µM and the IC50 ([2]; Homo sapiens, G-361, read-out: IC50 in cell proliferation assay) was > 10 µM. The IC50 ([2]; Homo sapiens, HCC827, read-out: IC50 in cell proliferation assay) was 1.59 µM, the IC50 ([2]; Homo sapiens, HCC4006, read-out: IC50 in cell proliferation assay) was 1.33 µM and the IC50 ([2]; Homo sapiens, HCT-15, read-out: IC50 in cell proliferation assay) was > 10 µM. For the same compound, the IC50 ([2]; Homo sapiens, HCT-116, read-out: IC50 in cell proliferation assay) was > 10 µM, the IC50 ([2]; Homo sapiens, HEC-1, read-out: IC50 in cell proliferation assay) was 1.32 µM and the IC50 ([2]; Homo sapiens, HEC-1B, read-out: IC50 in cell proliferation assay) was > 10 µM. The IC50 ([2]; Homo sapiens, HL-60, read-out: IC50 in cell proliferation assay) was > 10 µM, the IC50 ([2]; Homo sapiens, HT, read-out: IC50 in cell proliferation assay) was > 10 µM and the IC50 ([2]; Homo sapiens, HT-1080, read-out: IC50 in cell proliferation assay) was 7.55 µM. For the same compound, the IC50 ([2]; Homo sapiens, Hs746T, read-out: IC50 in cell proliferation assay) was > 10 µM, the IC50 ([2]; Homo sapiens, Hs-578T, read-out: IC50 in cell proliferation assay) was 4.92 µM and the IC50 ([2]; Homo sapiens, HuTu80, read-out: IC50 in cell proliferation assay) was > 10 µM. For the same compound, the IC50 ([2]; Homo sapiens, J82, read-out: IC50 in cell proliferation assay) was > 10 µM, the IC50 ([2]; Homo sapiens, Jurkat E6.1, read-out: IC50 in cell proliferation assay) was > 10 µM and the IC50 ([2]; Homo sapiens, K562, read-out: IC50 in cell proliferation assay) was > 10 µM. For the same compound, the IC50 ([2]; Homo sapiens, KATO III, read-out: IC50 in cell proliferation assay) was > 10 µM, the IC50 ([2]; Homo sapiens, KG-1, read-out: IC50 in cell proliferation assay) was 0.442 µM and the IC50 ([2]; Homo sapiens, KLE, read-out: IC50 in cell proliferation assay) was > 10 µM. For the same compound, the IC50 ([2]; Homo sapiens, KMS-11, read-out: IC50 in cell proliferation assay) was > 10 µM, the IC50 ([2]; Homo sapiens, KU812, read-out: IC50 in cell proliferation assay) was > 10 µM and the IC50 ([2]; Homo sapiens, Kasumi 1, read-out: IC50 in cell proliferation assay) was 1.53 µM. The IC50 ([2]; Homo sapiens, LC-2-ad, read-out: IC50 in cell proliferation assay) was 1.11 µM, the IC50 ([2]; Homo sapiens, LNCaP-Clone-FGC, read-out: IC50 in cell proliferation assay) was > 10 µM and the IC50 ([2]; Homo sapiens, LS174T, read-out: IC50 in cell proliferation assay) was > 10 µM. For the same compound, the IC50 ([2]; Homo sapiens, LS-411N, read-out: IC50 in cell proliferation assay) was > 10 µM, the IC50 ([2]; Homo sapiens, LoVo, read-out: IC50 in cell proliferation assay) was > 10 µM and the IC50 ([2]; Homo sapiens, MCF7, read-out: IC50 in cell proliferation assay) was > 10 µM. For the same compound, the IC50 ([2]; Homo sapiens, MDA-MB-231, read-out: IC50 in cell proliferation assay) was > 10 µM, the IC50 ([2]; Homo sapiens, MDA-MB-453, read-out: IC50 in cell proliferation assay) was > 10 µM and the IC50 ([2]; Homo sapiens, MDA-MB-468, read-out: IC50 in cell proliferation assay) was > 10 µM. For the same compound, the IC50 ([2]; Homo sapiens, MG-63, read-out: IC50 in cell proliferation assay) was > 10 µM, the IC50 ([2]; Homo sapiens, MIA PaCa-2, read-out: IC50 in cell proliferation assay) was > 10 µM and the IC50 ([2]; Homo sapiens, MKN-45, read-out: IC50 in cell proliferation assay) was > 10 µM. The IC50 ([2]; Homo sapiens, MOLM-13, read-out: IC50 in cell proliferation assay) was 0.99 µM, the IC50 ([2]; Homo sapiens, MOLT-4, read-out: IC50 in cell proliferation assay) was > 10 µM and the IC50 ([2]; Homo sapiens, MV4-11, read-out: IC50 in cell proliferation assay) was 1.07 µM. For the same compound, the IC50 ([2]; Homo sapiens, MeWo, read-out: IC50 in cell proliferation assay) was > 10 µM, the IC50 ([2]; Homo sapiens, NCCIT, read-out: IC50 in cell proliferation assay) was > 3.16 µM and the IC50 ([2]; Homo sapiens, NCI-H82, read-out: IC50 in cell proliferation assay) was > 10 µM. For the same compound, the IC50 ([2]; Homo sapiens, NCI-H460, read-out: IC50 in cell proliferation assay) was > 10 µM, the IC50 ([2]; Homo sapiens, NCI-H661, read-out: IC50 in cell proliferation assay) was > 10 µM and the IC50 ([2]; Homo sapiens, NCI-H716, read-out: IC50 in cell proliferation assay) was 2.51 µM. It also gave an IC50 ([2]; Homo sapiens, NCI-H1650, read-out: IC50 in cell proliferation assay) of 1.66 µM, an IC50 ([2]; Homo sapiens, NCI-H1975, read-out: IC50 in cell proliferation assay) of 0.743 µM and an IC50 ([2]; Homo sapiens, NCI-H2228, read-out: IC50 in cell proliferation assay) of 0.039 µM. For the same compound, the IC50 ([2]; Homo sapiens, OVCAR-3, read-out: IC50 in cell proliferation assay) was > 10 µM, the IC50 ([2]; Homo sapiens, PFSK-1, read-out: IC50 in cell proliferation assay) was 3.48 µM and the IC50 ([2]; Homo sapiens, RL95-2, read-out: IC50 in cell proliferation assay) was 1.33 µM. The IC50 ([2]; Homo sapiens, RPMI-7951, read-out: IC50 in cell proliferation assay) was > 10 µM, the IC50 ([2]; Homo sapiens, RS4-11, read-out: IC50 in cell proliferation assay) was > 10 µM and the IC50 ([2]; Homo sapiens, Rec1, read-out: IC50 in cell proliferation assay) was 1.24 µM. The IC50 ([2]; Homo sapiens, SHP77, read-out: IC50 in cell proliferation assay) was > 10 µM, the IC50 ([2]; Homo sapiens, SK-BR-3, read-out: IC50 in cell proliferation assay) was > 10 µM and the IC50 ([2]; Homo sapiens, SK-N-AS, read-out: IC50 in cell proliferation assay) was 7.73 µM. The IC50 ([2]; Homo sapiens, SK-N-FI, read-out: IC50 in cell proliferation assay) was 7.44 µM, the IC50 ([2]; Homo sapiens, SK-N-MC, read-out: IC50 in cell proliferation assay) was > 10 µM and the IC50 ([2]; Homo sapiens, SK-N-SH, read-out: IC50 in cell proliferation assay) was 2.43 µM. The IC50 ([2]; Homo sapiens, SNU-5, read-out: IC50 in cell proliferation assay) was > 10 µM, the IC50 ([2]; Homo sapiens, SNU-16, read-out: IC50 in cell proliferation assay) was > 10 µM and the IC50 ([2]; Homo sapiens, SNU-C2B, read-out: IC50 in cell proliferation assay) was > 10 µM. The IC50 ([2]; Homo sapiens, SU-DHL-1, read-out: IC50 in cell proliferation assay) was 0.432 µM, the IC50 ([2]; Homo sapiens, SU-DHL-6, read-out: IC50 in cell proliferation assay) was > 10 µM and the IC50 ([2]; Homo sapiens, SUP-T1, read-out: IC50 in cell proliferation assay) was > 10 µM. The IC50 ([2]; Homo sapiens, SW48, read-out: IC50 in cell proliferation assay) was > 10 µM, the IC50 ([2]; Homo sapiens, SW480, read-out: IC50 in cell proliferation assay) was > 10 µM and the IC50 ([2]; Homo sapiens, SW626, read-out: IC50 in cell proliferation assay) was > 10 µM. For the same compound, the IC50 ([2]; Homo sapiens, SW780, read-out: IC50 in cell proliferation assay) was 1.67 µM, the IC50 ([2]; Homo sapiens, SW837, read-out: IC50 in cell proliferation assay) was > 10 µM and the IC50 ([2]; Homo sapiens, SW872, read-out: IC50 in cell proliferation assay) was > 10 µM. For the same compound, the IC50 ([2]; Homo sapiens, SW900, read-out: IC50 in cell proliferation assay) was > 10 µM, the IC50 ([2]; Homo sapiens, SW948, read-out: IC50 in cell proliferation assay) was > 10 µM and the IC50 ([2]; Homo sapiens, SW982, read-out: IC50 in cell proliferation assay) was > 10 µM. The IC50 ([2]; Homo sapiens, SW-620, read-out: IC50 in cell proliferation assay) was > 10 µM, the IC50 ([2]; Homo sapiens, T98G, read-out: IC50 in cell proliferation assay) was > 10 µM and the IC50 ([2]; Homo sapiens, TCC-SUP, read-out: IC50 in cell proliferation assay) was 3.7 µM. For the same compound, the IC50 ([2]; Homo sapiens, THP-1, read-out: IC50 in cell proliferation assay) was > 10 µM, the IC50 ([2]; Homo sapiens, U2OS, read-out: IC50 in cell proliferation assay) was 3.79 µM and the IC50 ([2]; Homo sapiens, U-87 MG, read-out: IC50 in cell proliferation assay) was 3.1 µM. The IC50 ([2]; Homo sapiens, U-118-MG, read-out: IC50 in cell proliferation assay) was 3.33 µM, the IC50 ([2]; Homo sapiens, UMUC3, read-out: IC50 in cell proliferation assay) was 3.3 µM and the IC50 ([2]; Hs766T, read-out: IC50 in cell proliferation assay) was > 10 µM. For the same compound, the IC50 ([2]; L-82, read-out: IC50 in cell proliferation assay) was 0.037 µM and the IC50 ([2]; Rh30, read-out: IC50 in cell proliferation assay) was > 10 µM.
